Test results published in patent US9409923B2, “Drug-fluorophore complex for specific detection of tumor cells” (KOREA INSTITUTE OF SCIENCE AND TECHNOLOGY, priority 2013, dated 2016).

Columns and labels:
[1] = in vivo; cited from earlier work
[2] = test system: HCT-116 cells (colorectal cancer cells) including luciferase; assay: Specific in vivo imaging of tumor cells (fluorescence vs luminescence, IVIS) in mouse liver tumors; design: species or system Mice; conditions: 25 μM in PBS (pH 7.4), 50 μl dropped on open abdomen, observed after 3 min; FIGS. 2a-2d
Procedure: (§1) Mice were anesthetized with intraperitoneal injection of ketamine and xylazine, and their abdomens were cut open. HCT-116 cells (colorectal cancer cells) including luciferase were added at a concentration of 1×10^6 cells to 20 μl saline solution and injected into the left lobe of the liver to induce tumors in the mice. Four weeks after cell injection, the tumors were imaged as follows:
(§2) The compounds of Synthesis Examples 1-5 were dissolved in PBS (pH 7.4) to prepare 25 μM solutions. Mice were anesthetized intraperitoneally and their abdomens were open. 50 μl of each of the compounds was dropped using a 100 μl pipette. After 3 min, fluorescence and luminescence were observed using an imaging system (IVIS®).
FIGS. 2a to 2d are images showing fluorescence (2a) and luminescence (2b) from the fluorophore to which toremifene was not bonded, and images showing fluorescence (2c) and luminescence (2d) from the complex of the present invention in which the fluorophore was bonded to toremifene.

[3] = test system: HCT-116 cells (colorectal cancer cells) including luciferase; assay: Ex vivo imaging on liver sections excised from mice; format: in vivo; conditions: FIGS. 3a-3d
Procedure: as §1, §2
Similarly to the procedure described above, ex vivo imaging was performed on liver sections excised from mice. The results are shown in FIGS. 3a to 3d (3a and 3b: fluorescence and luminescence images of the fluorophore, respectively; 3c and 3d: fluorescence and luminescence images of the drug-fluorophore complex, respectively).

SMILES: CC1(C)S[C@@H]2[C@H](NC(=O)[C@H](N)c3ccccc3)C(=O)N2[C@H]1C(=O)O [Ampicillin]
- Volume of distribution [1]: 0.38 L/kg

SMILES: CNCCOc1ccc(/C(=C(/CCCl)c2ccccc2)c2ccccc2)cc1 [N-desmethyltoremifene]
- Volume of distribution [1]: 8.3 L/kg

SMILES: CC[N+]1=C(/C=C/C=C/C=C2/N(CCCCCC(=O)N(C)CCOc3ccc(/C(=C(/CCCl)c4ccccc4)c4ccccc4)cc3)c3ccc4c(S(=O)(=O)O)cc(S(=O)(=O)O)cc4c3C2(C)C)C(C)(C)c2c1ccc1c(S(=O)(=O)O)cc(S(=O)(=O)[O-])cc21 [Synthesis Example 3, N-desmethyl toremifene-FCR675 Carboxylic Acid Complex]
- fluorescence in tumor-bearing liver compared with luminescence position [2]: fluorescence was observed in the section of the liver, which was the same as the position confirmed by luminescence
- fluorescence and luminescence in excised liver sections (ex vivo imaging) [3]: the same results of the in vivo imaging were observed in the ex vivo imaging
